Measured values taken from article PMC10726358 (Journal of Medicinal Chemistry, 2023).

Assays:
CAD aqueous solubility = assay: CAD aqueous solubility
Protocol: To understand cellular target engagement, 21 was tested in an LPS-stimulated hWB assay measuring inhibition of the inflammatory mediator MCP-1 secretion.
ChromatographicLogD at pH 7.4, artificial membrane permeability, CLND solubility, and CAD solubility were measured using published protocols.[55]

BRDT BD2 [1] = target: T1, BRDT BD2 (Homo sapiens, UniProt Q58F21); assay: BRDT BD2 TR-FRET assay; format: binding
Protocol: (§1) The BRD4 BD1/BD2 TR-FRET assay had been used routinely for this optimization work, and in order to better understand the BET BD1 domain selectivity profile, 31 was tested in TR-FRET BRD2, BRD3, and BRDT assays.
All TR-FRET and hWB cytokine assays have been described previously.[54]

BRD3 BD1 = target: T2, BRD3 BD1 (Homo sapiens, UniProt Q15059); assay: BROMOscan BRD3 BD1; format: binding
T2 construct: BRD3 BD1; purchased DiscoverX
T2 sequence (Q15059 34-140 limits assumed): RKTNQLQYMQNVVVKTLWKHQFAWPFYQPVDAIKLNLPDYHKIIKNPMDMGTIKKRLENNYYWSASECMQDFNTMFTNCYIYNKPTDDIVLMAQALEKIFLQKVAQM
Protocol: as §1
(§2) [52] BROMOscan recombinant protein binding assays were carried out at DiscoverX. (accessed April 4, 2023).

BRDT BD2 [2] = target: T1, BRDT BD2; assay: BROMOscan BRDT BD2; format: binding
Protocol: as §1, §2

EP300 = target: T3, EP300 (Homo sapiens, UniProt Q09472); assay: BROMOscan EP300; format: binding
T3 construct: The broader non-BET bromodomain selectivity was also determined in the BROMOscan assay, with the closest off-target being EP300; purchased DiscoverX
T3 sequence (Q09472 1049-1156 limits assumed): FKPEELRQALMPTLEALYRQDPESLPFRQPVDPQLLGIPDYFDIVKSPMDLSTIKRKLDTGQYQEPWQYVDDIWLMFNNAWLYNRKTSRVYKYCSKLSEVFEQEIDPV
Protocol: as §1, §2

CREBBP = target: T4, CREBBP (Homo sapiens, UniProt Q92793); assay: BROMOscan CREBBP; format: binding
T4 construct: ≥2000-fold selectivity over all 20 non-BET bromodomains tested; purchased DiscoverX
T4 sequence (Q92793 1085-1192 limits assumed): as the sequence (Q09472 1049-1156 limits assumed) above, with S47N, I73V, Y93F, S98A counted along it
Protocol: as §1, §2

BAZ2B = target: T5, BAZ2B (Homo sapiens, UniProt Q9UIF8); assay: BROMOscan BAZ2B; format: binding
T5 construct: ≥2000-fold selectivity over all 20 non-BET bromodomains tested; purchased DiscoverX
Protocol: as §1, §2

BRD8 BD1 = target: T6, BRD8 BD1 (Homo sapiens, UniProt Q9H0E9); assay: BROMOscan BRD8 BD1; format: binding
T6 construct: BRD8 BD1; purchased DiscoverX
T6 sequence (Q9H0E9 706-811 limits assumed): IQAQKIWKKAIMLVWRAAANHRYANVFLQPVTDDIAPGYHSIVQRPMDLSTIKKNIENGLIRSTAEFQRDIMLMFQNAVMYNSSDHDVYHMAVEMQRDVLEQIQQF
Protocol: as §1, §2

BRPF3 = target: T7, BRPF3 (Homo sapiens, UniProt Q9ULD4); assay: BROMOscan BRPF3; format: binding
T7 construct: ≥2000-fold selectivity over all 20 non-BET bromodomains tested; purchased DiscoverX
Protocol: as §1, §2

PCAF = target: T8, PCAF (Homo sapiens, UniProt Q92831); assay: BROMOscan PCAF; format: binding
T8 construct: ≥2000-fold selectivity over all 20 non-BET bromodomains tested; purchased DiscoverX
T8 sequence (Q92831 723-827 limits assumed): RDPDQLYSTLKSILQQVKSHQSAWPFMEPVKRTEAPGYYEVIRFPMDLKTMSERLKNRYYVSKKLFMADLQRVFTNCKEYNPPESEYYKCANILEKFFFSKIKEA
Protocol: as §1, §2

SMARCA4 = target: T9, SMARCA4 (Homo sapiens, UniProt P51532); assay: BROMOscan SMARCA4; format: binding
T9 construct: ≥2000-fold selectivity over all 20 non-BET bromodomains tested; purchased DiscoverX
T9 sequence (P51532 1453-1564 limits assumed): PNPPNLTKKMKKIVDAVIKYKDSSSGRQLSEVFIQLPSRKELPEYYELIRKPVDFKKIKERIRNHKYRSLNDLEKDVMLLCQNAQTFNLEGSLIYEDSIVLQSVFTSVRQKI
Protocol: as §1, §2

non-BET bromodomains = assay: BROMOscan non-BET bromodomain panel; format: binding, human
Protocol: as §1, §2

[3] = test system: 12 multiplex human primary-cell-based assays; assay: BioMAP Diversity PLUS platform
Protocol: The X-axis lists the quantitative protein-based biomarker readouts measured in each system. The Y-axis represents a log-transformed ratio of the biomarker readouts for the drug-treated sample (n = 1) over vehicle controls (n ≥ 6). […] Biomarker key activities are described as modulated if these activities increase in some systems but decrease in others.
31 was added 1 h before stimulation of the cells and was present during the entire incubation period of the assays.

Alpha 2C Adrenoceptor = target: T10, Alpha 2C Adrenoceptor (Homo sapiens, UniProt P18825); assay: Cross screening: Alpha 2C Adrenoceptor agonist; format: biochemical
T10 construct: purchased GSK enhanced cross-screening panel (in-house)

5-HT3 [4] = target: T11, 5-HT3 (Homo sapiens, UniProt P46098); assay: Cross screening: 5-HT3 Agonist; format: biochemical
T11 construct: purchased GSK enhanced cross-screening panel (in-house)
T11 sequence (P46098 24-478): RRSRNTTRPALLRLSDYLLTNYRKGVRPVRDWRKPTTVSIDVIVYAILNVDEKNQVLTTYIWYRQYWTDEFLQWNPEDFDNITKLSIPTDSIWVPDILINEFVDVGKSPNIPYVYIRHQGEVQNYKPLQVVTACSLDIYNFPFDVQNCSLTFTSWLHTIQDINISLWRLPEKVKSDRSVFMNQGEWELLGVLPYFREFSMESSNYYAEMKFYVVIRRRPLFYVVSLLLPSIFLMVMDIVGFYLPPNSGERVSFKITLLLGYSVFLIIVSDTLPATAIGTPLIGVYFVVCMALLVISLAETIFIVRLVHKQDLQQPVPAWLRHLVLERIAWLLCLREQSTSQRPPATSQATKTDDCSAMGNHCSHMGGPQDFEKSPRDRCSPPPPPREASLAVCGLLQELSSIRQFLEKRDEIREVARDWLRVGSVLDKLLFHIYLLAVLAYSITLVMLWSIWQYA

5-HT2A = target: T12, 5-HT2A (Homo sapiens, UniProt P28223); assay: Cross screening: 5-HT2A Agonist; format: biochemical
T12 construct: purchased GSK enhanced cross-screening panel (in-house)

5-HT2C [5] = target: T13, 5-HT2C (Homo sapiens, UniProt P28335); assay: Cross screening: 5-HT2C Agonist; format: biochemical
T13 construct: purchased GSK enhanced cross-screening panel (in-house)
T13 sequence (P28335 33-458): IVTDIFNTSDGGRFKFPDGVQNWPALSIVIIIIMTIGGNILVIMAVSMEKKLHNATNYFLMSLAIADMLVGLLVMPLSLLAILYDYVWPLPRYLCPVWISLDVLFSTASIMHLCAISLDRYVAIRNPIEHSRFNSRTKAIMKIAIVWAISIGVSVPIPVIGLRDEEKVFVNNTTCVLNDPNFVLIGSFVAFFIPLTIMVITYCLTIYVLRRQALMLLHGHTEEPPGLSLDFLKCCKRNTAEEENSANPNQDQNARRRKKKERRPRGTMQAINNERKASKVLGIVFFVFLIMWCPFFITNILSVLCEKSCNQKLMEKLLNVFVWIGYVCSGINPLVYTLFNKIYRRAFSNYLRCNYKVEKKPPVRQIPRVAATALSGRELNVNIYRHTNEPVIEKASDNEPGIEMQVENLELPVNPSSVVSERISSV

AR = target: T14, AR (Homo sapiens, UniProt P10275); assay: Cross screening: AR Agonist; format: biochemical
T14 construct: purchased GSK enhanced cross-screening panel (in-house)

Alpha 1 nAChR = target: T15, Alpha 1 nAChR (Homo sapiens, UniProt P02708+P07510+Q07001); assay: Cross screening: Alpha 1 nAChR Antagonist; format: biochemical
T15 construct: purchased GSK enhanced cross-screening panel (in-house)

GR = target: T16, GR (Homo sapiens, UniProt P04150); assay: Cross screening: GR Agonist; format: biochemical
T16 construct: purchased GSK enhanced cross-screening panel (in-house)

[6] = target: T17, Acetylcholinesterase (AChE) (Homo sapiens, UniProt P22303); assay: Cross screening: Acetylcholinesterase (AChE) antagonist; format: biochemical
T17 construct: purchased GSK enhanced cross-screening panel (in-house)

hCav1_2 = target: T18, hCav1_2 (Homo sapiens, UniProt Q13936); assay: Cross screening: hCav1_2 Blocker; format: biochemical
T18 construct: purchased GSK enhanced cross-screening panel (in-house)

Beta2 Adrenoceptor = target: T19, Beta2 Adrenoceptor (Homo sapiens, UniProt P07550); assay: Cross screening: Beta2 Adrenoceptor Antagonist; format: biochemical
T19 construct: purchased GSK enhanced cross-screening panel (in-house)
T19 sequence (P07550 whole entry): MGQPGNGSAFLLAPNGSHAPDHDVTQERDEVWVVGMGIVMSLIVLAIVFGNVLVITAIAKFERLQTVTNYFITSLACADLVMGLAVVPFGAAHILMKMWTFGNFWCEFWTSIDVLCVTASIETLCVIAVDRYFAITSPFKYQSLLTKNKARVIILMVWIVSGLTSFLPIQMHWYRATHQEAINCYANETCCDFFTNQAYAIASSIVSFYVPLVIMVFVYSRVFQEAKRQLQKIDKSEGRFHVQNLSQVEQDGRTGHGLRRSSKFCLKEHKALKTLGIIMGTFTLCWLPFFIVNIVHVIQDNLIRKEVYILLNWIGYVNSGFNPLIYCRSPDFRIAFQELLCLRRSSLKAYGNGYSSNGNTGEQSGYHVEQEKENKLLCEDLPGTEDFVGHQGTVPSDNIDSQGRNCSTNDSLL

PI3K-gamma = target: T20, PI3K-gamma (Homo sapiens, UniProt P48736); assay: Cross screening: PI3K-gamma inhibitor; format: biochemical
T20 construct: purchased GSK enhanced cross-screening panel (in-house)

PDE4B = target: T21, PDE4B (Homo sapiens, UniProt Q07343); assay: Cross screening: PDE4B antagonist; format: biochemical
T21 construct: purchased GSK enhanced cross-screening panel (in-house)
T21 sequence (Q07343 whole entry): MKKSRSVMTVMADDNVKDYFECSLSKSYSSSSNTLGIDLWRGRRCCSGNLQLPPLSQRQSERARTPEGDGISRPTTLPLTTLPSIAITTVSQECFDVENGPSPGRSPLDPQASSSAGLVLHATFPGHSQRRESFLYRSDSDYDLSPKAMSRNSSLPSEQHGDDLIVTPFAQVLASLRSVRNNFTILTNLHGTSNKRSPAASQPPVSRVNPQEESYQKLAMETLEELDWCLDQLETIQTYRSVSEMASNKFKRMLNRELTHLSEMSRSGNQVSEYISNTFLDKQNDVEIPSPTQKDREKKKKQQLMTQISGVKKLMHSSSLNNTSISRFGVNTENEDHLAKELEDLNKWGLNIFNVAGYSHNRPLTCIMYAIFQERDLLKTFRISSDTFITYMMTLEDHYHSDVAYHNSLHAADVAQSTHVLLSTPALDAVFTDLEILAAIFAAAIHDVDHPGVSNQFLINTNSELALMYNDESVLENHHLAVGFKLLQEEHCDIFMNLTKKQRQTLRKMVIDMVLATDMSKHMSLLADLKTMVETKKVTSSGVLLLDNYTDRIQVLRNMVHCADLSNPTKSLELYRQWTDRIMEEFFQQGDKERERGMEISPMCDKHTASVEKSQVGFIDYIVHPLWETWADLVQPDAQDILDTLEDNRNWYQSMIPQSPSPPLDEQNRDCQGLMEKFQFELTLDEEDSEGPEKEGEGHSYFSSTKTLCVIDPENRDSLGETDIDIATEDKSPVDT

5-HT3 [7] = target: T11, 5-HT3; assay: Cross screening: 5-HT3 antagonist; format: biochemical
M2 (CHRM2) = target: T22, M2 (CHRM2) (Homo sapiens, UniProt P08172); assay: Cross screening: M2 (CHRM2) antagonist; format: biochemical
T22 construct: purchased GSK enhanced cross-screening panel (in-house)
T22 sequence (P08172 whole entry): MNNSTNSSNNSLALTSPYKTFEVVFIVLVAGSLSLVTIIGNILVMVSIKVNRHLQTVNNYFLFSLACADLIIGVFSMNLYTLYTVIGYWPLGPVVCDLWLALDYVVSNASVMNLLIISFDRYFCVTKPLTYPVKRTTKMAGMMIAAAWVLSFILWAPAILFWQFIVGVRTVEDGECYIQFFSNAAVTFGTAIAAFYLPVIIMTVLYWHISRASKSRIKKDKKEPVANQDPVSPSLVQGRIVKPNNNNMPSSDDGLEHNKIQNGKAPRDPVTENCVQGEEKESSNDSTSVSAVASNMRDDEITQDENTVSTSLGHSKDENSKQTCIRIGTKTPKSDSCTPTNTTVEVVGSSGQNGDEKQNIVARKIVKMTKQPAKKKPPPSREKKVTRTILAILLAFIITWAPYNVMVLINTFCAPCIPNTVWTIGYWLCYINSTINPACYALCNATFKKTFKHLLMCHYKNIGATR

Histamine 1 = target: T23, Histamine 1 (Homo sapiens, UniProt P35367); assay: Cross screening: Histamine 1 antagonist; format: biochemical
T23 construct: purchased GSK enhanced cross-screening panel (in-house)

5-HT2C [8] = target: T13, 5-HT2C; assay: Cross screening: 5-HT2C antagonist; format: biochemical
V1a = target: T24, V1a (Homo sapiens, UniProt P37288); assay: Cross screening: V1a antagonist; format: biochemical
T24 construct: purchased GSK enhanced cross-screening panel (in-house)

[9] = Chromatographic LogD at pH 7.4
hERG = hERG (Homo sapiens, UniProt Q12809); assay: Cross screening: hERG blocker
Chain of hERG (Q12809 whole entry): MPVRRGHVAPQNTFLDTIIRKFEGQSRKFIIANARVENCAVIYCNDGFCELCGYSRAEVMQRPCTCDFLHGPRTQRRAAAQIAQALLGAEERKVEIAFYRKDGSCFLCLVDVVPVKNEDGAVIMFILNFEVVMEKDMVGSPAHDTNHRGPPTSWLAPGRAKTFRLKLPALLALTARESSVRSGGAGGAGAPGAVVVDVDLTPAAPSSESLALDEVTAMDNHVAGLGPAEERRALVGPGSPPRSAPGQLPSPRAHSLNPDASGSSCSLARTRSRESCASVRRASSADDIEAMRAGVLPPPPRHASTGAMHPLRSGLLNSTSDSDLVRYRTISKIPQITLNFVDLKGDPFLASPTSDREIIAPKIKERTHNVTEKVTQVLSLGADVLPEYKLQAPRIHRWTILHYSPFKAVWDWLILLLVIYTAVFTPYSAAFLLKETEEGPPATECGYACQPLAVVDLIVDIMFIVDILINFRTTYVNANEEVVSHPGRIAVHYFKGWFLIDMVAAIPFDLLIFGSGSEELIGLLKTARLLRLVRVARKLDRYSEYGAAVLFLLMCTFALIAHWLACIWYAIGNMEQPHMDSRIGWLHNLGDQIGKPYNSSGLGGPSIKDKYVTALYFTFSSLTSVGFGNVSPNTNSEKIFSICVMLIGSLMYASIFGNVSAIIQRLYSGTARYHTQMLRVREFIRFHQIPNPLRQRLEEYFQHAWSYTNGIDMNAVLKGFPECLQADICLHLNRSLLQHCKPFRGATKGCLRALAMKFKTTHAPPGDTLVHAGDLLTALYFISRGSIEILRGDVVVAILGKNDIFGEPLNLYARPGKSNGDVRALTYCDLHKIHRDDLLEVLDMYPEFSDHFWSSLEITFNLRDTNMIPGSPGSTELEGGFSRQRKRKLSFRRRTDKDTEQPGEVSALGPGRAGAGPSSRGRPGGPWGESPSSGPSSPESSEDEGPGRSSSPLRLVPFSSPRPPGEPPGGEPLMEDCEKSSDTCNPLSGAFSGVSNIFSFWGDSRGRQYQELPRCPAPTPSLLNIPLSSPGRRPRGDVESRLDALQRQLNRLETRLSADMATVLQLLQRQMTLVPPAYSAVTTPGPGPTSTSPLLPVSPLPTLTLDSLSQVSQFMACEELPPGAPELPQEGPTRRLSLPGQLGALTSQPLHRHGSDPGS

KCNQ1 = KCNQ1 (Homo sapiens, UniProt P51787); assay: Cross screening: KCNQ1 blocker
Chain of KCNQ1 (P51787 whole entry): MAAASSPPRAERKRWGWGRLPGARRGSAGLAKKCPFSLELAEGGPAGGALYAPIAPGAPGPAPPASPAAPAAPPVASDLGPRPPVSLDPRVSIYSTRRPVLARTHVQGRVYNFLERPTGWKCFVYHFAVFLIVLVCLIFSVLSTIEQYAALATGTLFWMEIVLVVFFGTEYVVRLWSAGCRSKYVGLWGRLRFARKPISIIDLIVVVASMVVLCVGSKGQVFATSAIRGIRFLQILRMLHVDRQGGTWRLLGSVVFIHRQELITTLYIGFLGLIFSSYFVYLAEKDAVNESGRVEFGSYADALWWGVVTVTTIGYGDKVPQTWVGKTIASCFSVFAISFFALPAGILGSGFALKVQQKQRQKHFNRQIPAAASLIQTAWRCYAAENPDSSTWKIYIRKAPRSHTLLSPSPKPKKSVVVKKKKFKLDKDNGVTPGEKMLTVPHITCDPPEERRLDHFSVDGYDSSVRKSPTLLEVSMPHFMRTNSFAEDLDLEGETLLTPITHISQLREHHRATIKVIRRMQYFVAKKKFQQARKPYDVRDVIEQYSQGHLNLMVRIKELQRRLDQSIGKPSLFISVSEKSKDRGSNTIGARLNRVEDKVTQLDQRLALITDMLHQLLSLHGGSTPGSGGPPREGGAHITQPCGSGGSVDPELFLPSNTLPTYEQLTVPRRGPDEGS

Nav1.5 = Nav1.5 (Homo sapiens, UniProt Q14524); assay: Cross screening: Nav1.5 blocker

Cc1cc(-c2nc3ccccc3n2C[C@@H]2CCCN(C(=O)C3CCN(C(C)C)CC3)C2)cn(C)c1=O [Compound 31, (S)-5-(1-((1-(1-Isopropylpiperidine-4-carbonyl)piperidin-3-yl)methyl)-1H-benzo [d]imidazole-2-yl)-1,3-dimethylpyridin-2(1H)-one]
solubility (CAD aqueous solubility): ≥ 257 µg/mL | BRDT BD2 TR-FRET pIC50 (BRDT BD2 [1]): 4.5 | BROMOscan pKd BRD3 BD1 (BRD3 BD1): 8.4 | fold selectivity BRD3 BD1 over BD2 (BRD3 BD1; BROMOscan): 400 fold | BROMOscan pKd BRDT BD2 (BRDT BD2 [2]): 5.5 | BROMOscan pKd EP300 (EP300): 5.0 | fold selectivity over EP300 (EP300; BROMOscan, compared to BRD4 BD1 pKd 8.1): 1200 fold | Kd (CREBBP): 20 µM | Kd (BAZ2B): > 31.6 µM | Kd (BRD8 BD1): > 31.6 µM | Kd (BRPF3): > 31.6 µM | Kd (PCAF): > 31.6 µM | Kd (SMARCA4): > 31.6 µM | selectivity over all non-BET bromodomains and broader liability targets tested (non-BET bromodomains): ≥ 1200 fold | BROMOscan pKd 20 non-BET bromodomains (non-BET bromodomains; 20 non-BET bromodomains other than EP300): ≤4.8 | fold selectivity over 20 non-BET bromodomains (non-BET bromodomains; BROMOscan): ≥2000 fold | BioMAP immune-modulatory biomarker levels ([3]; 10 μM to 160 nM, MCP-1, IL-8, IL-1, IL-10, M-CSF, IL-6): decreases | BioMAP antiproliferative effects ([3]; 10 μM to 160 nM, human primary T cells, coronary artery smooth muscle cells, endothelial cells, fibroblasts): antiproliferative effects | BioMAP cytotoxicity ([3]; 10 μM, […], 630 nM, 160 nM): No cytotoxicity was observed | pXC50 Alpha 2C Adrenoceptor agonist (Alpha 2C Adrenoceptor): < 4.0 | pXC50 5-HT3 Agonist (5-HT3 [4]): < 4.3 | pXC50 5-HT2A Agonist (5-HT2A): < 4.0 | pXC50 5-HT2C Agonist (5-HT2C [5]): < 4.0 | pXC50 AR Agonist (AR): < 4.0 | pXC50 Alpha 1 nAChR Antagonist (Alpha 1 nAChR): < 4.2 | pXC50 GR Agonist (GR): < 4.0 | pXC50 Acetylcholinesterase (AChE) antagonist [6]: < 4.0 | pXC50 hCav1_2 Blocker (hCav1_2): < 4.0 | pXC50 Beta2 Adrenoceptor Antagonist (Beta2 Adrenoceptor): < 4.0 | pXC50 PI3K-gamma inhibitor (PI3K-gamma): < 4.5 | pXC50 PDE4B antagonist (PDE4B): < 4.0 | pXC50 5-HT3 antagonist (5-HT3 [7]): < 4.3 | pXC50 M2 (CHRM2) antagonist (M2 (CHRM2)): < 4.3 | pXC50 Histamine 1 antagonist (Histamine 1): < 4.6 | pXC50 5-HT2C antagonist (5-HT2C [8]): < 4.0 | pXC50 V1a antagonist (V1a): < 4.3 | PFI (property forecast index) ([9]; chromLogDpH7.4 + number of aromatic rings): 4.7 | chromatographic logD ([9]; pH 7.4): 1.7 | pXC50 hERG blocker (hERG): < 4.3 | pXC50 KCNQ1 blocker (KCNQ1): < 4.6 | pXC50 Nav1.5 blocker (Nav1.5): < 4.3
